Experimental data published in ChEMBL document CHEMBL5550160, “Leveraging a rationally designed veliparib-based anilide eliciting anti-leukemic effects for the design of pH-responsive polymer nanoformulation” (Eur J Med Chem, 2024).
Active and inactive are the calls of the source. The rule behind the calls is not given here.

Legend:
Histone deacetylase 1 = Histone deacetylase 1 (Homo sapiens, UniProt Q13547); experiment: Inhibition of HDAC1 (unknown origin) using p53 residues 379 to 382 [RHKK(Ac)] as fluorogenic substrate assessed as residual activity at 3.70 x 10^-7M (reference value: 98.06%); settings: dose 3.7 10^-7M
Histone deacetylase 1, sequence (Q13547 whole entry, the tested form may be a part): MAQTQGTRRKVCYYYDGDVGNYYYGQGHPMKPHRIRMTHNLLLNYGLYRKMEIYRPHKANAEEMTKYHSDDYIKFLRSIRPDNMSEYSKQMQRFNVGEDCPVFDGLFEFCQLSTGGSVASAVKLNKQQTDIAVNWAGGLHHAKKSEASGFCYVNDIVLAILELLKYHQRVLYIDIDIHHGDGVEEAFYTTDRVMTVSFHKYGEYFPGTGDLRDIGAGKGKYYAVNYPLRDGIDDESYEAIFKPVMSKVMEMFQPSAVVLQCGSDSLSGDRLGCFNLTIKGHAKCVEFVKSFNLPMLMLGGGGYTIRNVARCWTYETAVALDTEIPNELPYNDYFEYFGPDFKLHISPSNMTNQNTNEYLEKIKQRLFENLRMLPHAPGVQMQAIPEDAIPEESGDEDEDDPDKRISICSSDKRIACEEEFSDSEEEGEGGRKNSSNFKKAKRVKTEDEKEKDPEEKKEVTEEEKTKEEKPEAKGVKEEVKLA

Histone deacetylase 3 = Histone deacetylase 3 (Homo sapiens, UniProt O15379); experiment: Inhibition of HDAC3 (unknown origin) using p53 residues 379 to 382 [RHKK(Ac)] as fluorogenic substrate assessed as residual activity at 3.33 x 10^-6M (reference value: 103.08%); settings: dose 3.33 10^-6M
Histone deacetylase 3, sequence (O15379 whole entry, the tested form may be a part): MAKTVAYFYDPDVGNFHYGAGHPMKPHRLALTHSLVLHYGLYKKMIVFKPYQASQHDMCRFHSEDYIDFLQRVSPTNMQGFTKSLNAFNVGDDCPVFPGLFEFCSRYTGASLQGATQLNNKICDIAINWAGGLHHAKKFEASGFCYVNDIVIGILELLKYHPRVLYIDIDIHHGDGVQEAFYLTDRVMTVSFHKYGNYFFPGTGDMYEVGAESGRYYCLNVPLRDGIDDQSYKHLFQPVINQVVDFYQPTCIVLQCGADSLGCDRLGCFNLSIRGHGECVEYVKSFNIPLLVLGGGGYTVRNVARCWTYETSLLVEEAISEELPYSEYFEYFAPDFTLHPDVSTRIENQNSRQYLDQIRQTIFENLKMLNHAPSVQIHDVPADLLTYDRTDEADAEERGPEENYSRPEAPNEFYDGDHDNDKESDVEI

[1] = target: Histone deacetylase 4 (Homo sapiens) (UniProt P56524); experiment: Inhibition of HDAC4 (unknown origin) assessed as residual activity at 4.12 x 10^-8M (reference value: 98.90%); settings: dose 4.12 10^-8M
Histone deacetylase 4 (Homo sapiens), sequence (P56524 whole entry, the tested form may be a part): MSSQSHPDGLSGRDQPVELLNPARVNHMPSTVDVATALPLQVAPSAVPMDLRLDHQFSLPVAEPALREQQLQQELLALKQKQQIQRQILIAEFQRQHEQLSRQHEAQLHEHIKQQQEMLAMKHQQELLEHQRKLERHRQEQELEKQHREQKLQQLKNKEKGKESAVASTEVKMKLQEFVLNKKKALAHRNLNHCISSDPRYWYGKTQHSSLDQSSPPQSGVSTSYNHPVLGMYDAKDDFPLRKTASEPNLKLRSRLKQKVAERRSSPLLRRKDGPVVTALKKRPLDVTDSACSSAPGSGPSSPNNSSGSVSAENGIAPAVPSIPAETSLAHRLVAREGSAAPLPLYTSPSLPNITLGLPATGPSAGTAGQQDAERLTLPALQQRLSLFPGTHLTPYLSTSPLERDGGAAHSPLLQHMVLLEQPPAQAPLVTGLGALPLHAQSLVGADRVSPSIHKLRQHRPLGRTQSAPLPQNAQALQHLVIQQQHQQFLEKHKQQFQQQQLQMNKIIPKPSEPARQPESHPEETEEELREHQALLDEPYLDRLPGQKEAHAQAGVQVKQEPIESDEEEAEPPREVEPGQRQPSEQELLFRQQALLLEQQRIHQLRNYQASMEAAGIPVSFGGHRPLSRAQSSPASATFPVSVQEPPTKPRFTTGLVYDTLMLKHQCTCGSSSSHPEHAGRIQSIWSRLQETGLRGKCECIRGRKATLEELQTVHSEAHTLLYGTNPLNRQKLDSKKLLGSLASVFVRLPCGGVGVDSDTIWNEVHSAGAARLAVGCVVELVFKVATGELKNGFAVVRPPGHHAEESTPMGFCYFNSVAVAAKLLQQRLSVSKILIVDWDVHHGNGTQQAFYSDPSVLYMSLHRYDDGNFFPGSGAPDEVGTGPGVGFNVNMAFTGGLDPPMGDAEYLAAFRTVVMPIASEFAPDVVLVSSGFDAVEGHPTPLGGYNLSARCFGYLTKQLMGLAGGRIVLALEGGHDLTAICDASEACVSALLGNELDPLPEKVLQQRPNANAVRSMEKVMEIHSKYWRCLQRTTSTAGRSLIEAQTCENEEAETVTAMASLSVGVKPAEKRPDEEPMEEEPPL

[2] = target: T1, Protein deacetylase HDAC6 (Homo sapiens) (UniProt Q9UBN7); experiment: Inhibition of HDAC6 (unknown origin) using p53 residues 379 to 382 [RHKK(Ac)] as fluorogenic substrate assessed as residual activity at 3.33 x 10^-6M (reference value: 101.06%); settings: dose 3.33 10^-6M
T1 sequence (whole entry): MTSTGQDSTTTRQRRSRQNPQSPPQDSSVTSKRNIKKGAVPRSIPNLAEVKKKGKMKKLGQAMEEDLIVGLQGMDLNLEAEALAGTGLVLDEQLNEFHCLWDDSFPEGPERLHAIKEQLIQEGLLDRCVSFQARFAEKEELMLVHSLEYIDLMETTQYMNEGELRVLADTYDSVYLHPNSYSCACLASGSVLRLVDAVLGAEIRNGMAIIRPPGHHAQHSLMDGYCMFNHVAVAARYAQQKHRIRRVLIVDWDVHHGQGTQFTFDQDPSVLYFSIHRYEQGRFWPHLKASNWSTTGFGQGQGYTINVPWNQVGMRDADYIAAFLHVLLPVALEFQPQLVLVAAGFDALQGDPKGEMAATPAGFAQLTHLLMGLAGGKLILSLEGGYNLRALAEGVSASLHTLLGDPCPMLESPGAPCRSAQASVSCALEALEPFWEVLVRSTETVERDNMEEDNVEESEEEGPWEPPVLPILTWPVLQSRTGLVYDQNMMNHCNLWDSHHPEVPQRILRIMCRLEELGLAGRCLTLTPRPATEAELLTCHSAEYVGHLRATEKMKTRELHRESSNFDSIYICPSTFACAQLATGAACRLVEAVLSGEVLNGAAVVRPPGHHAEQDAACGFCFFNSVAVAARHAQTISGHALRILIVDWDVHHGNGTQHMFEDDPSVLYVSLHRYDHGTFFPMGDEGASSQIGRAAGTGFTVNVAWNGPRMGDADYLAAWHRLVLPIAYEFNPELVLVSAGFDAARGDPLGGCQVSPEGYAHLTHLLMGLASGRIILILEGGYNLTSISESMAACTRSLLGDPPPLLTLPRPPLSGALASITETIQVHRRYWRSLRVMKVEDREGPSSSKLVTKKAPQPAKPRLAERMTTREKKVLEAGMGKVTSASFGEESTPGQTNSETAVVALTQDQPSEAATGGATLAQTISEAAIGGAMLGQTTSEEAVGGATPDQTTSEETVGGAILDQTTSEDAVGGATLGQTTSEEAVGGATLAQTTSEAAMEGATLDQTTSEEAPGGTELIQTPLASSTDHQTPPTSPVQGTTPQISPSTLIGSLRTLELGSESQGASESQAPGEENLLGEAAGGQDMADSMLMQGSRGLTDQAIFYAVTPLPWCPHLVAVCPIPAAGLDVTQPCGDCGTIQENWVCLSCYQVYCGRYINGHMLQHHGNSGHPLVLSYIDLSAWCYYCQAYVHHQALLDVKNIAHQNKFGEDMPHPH

[3] = target: T1, Protein deacetylase HDAC6 (Homo sapiens); experiment: Inhibition of HDAC6 (unknown origin) using p53 residues 379 to 382 [RHKK(Ac)] as fluorogenic substrate assessed as residual activity at 3.70 x 10^-7M (reference value: 101.06%); settings: dose 3.7 10^-7M
[4] = target: T1, Protein deacetylase HDAC6 (Homo sapiens); experiment: Inhibition of HDAC6 (unknown origin) using p53 residues 379 to 382 [RHKK(Ac)] as fluorogenic substrate assessed as residual activity at 1.23 x 10^-7M (reference value: 101.06%); settings: dose 1.23 10^-7M
[5] = target: T1, Protein deacetylase HDAC6 (Homo sapiens); experiment: Inhibition of HDAC6 (unknown origin) using p53 residues 379 to 382 [RHKK(Ac)] as fluorogenic substrate assessed as residual activity at 4.12 x 10^-8M (reference value: 101.06%); settings: dose 4.12 10^-8M
[6] = target: T2, Histone deacetylase 7 (Homo sapiens) (UniProt Q8WUI4); experiment: Inhibition of HDAC7 (unknown origin) assessed as residual activity at 4.57 x 10^-9M (reference value: 102.66%); settings: dose 4.57 10^-9M
T2 sequence (whole entry): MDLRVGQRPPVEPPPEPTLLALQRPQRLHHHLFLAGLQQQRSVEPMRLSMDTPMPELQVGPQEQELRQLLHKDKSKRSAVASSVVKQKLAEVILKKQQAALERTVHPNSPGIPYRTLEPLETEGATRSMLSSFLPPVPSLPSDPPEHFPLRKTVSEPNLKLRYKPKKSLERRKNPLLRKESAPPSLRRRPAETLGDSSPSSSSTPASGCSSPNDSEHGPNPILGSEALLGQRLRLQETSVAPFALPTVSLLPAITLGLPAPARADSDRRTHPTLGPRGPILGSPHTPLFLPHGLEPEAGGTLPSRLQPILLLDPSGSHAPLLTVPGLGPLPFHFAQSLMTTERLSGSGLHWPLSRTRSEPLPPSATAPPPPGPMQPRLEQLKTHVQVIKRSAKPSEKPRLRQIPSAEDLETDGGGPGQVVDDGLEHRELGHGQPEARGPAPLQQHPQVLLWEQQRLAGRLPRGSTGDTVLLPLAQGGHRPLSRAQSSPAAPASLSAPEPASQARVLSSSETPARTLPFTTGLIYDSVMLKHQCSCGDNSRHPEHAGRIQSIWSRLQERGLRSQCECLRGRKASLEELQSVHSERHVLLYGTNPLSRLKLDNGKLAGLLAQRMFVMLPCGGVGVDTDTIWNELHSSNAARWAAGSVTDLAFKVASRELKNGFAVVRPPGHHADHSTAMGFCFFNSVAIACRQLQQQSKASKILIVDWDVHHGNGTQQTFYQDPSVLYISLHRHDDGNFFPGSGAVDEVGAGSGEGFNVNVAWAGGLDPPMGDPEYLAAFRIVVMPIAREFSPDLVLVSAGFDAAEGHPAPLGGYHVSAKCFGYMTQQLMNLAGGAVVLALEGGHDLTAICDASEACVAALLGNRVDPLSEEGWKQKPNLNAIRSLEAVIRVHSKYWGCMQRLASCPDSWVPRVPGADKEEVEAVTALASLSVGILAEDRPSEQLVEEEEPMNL

HL-60 = experiment: Downregulation of HDAC2 protein expression in human HL-60 cells at 0.5 to 1 times IC50 by Western blot analysis; format: functional, cell-based
K562 = experiment: cells; settings: Homo sapiens
Description: Antiproliferative activity against human K562 cells assessed as inhibition of cell growth by MTT assay

Activity (Histone deacetylase 1): 16.9%
Activity (Histone deacetylase 3): 12.8%
Activity [1]: 96%
Activity [2]: 105%
Activity [3]: 101%
Activity [4]: 91.9%
Activity [5]: 99.2%
Activity [6]: 111%
IC50 (K562): 1210 nM
Compound: NC(=O)c1cccc2[nH]c(-c3ccc(NCc4ccc(C(=O)Nc5ccccc5N)cc4)cc3)nc12
Activity (HL-60): Active
